Assay results from US20100076092A1, “LIPID-DERIVED NANOPARTICLES FOR BRAIN-TARGETED DRUG DELIVERY” (priority 2006, published 2010).

Experiment: Biodistribution / brain delivery of drug in mice after intravenous drug-loaded nanoparticles
Assay type: in vivo
Conditions: mouse, BMS, 12 mg/kg intravenously through tail vein in mice, HPLC, mean±SD (n=6), read-out: drug levels in the brain
Description: The brain delivery of BMS was assessed one hour following intravenous administration of brain lipid-coated nanoparticles in mice (FIG. 1). BMS in nanoparticles with or without brain-derived lipids or equivalent amount in solution (12 mg/kg) was injected intravenously in mice through tail vein, and drug levels in different tissues at the end of 1 hr was analyzed by HPLC. Data as mean±SD (n=6). * p<0.05. […] Data as mean±SD (n=4 and 3). * p<0.05.

Q: For Cc1noc(NS(=O)(=O)c2cccc3c(N(C)C)cccc23)c1C [solution control, BMS 182874], which concentration at 1 h is on record?
A: 2360 ± 580 ng/g
